ChEMBL document CHEMBL4418299, “Compounds useful as csf1 modulators” (2016)

Columns and labels:
[1] = target: Macrophage colony-stimulating factor 1 receptor (Homo sapiens, UniProt P07333); experiment: Displacement of kinase tracer 236 from recombinant human His-tagged CSF1R cytoplasmic domain (538 to 910 residues) expressed in baculovirus-infected insect cells measured after 5 hrs by TR-FRET based LanthaScreen assay
[2] = target: Vascular endothelial growth factor receptor 2 (Homo sapiens, UniProt P35968); experiment: Displacement of kinase tracer 236 from recombinant human His-tagged KDR cytoplasmic domain (789 to 1356 residues) expressed in baculovirus-infected insect cells measured after 5 hrs by TR-FRET based LanthaScreen assay
Sequence of Vascular endothelial growth factor receptor 2 (P35968 whole entry, the tested form may be a part): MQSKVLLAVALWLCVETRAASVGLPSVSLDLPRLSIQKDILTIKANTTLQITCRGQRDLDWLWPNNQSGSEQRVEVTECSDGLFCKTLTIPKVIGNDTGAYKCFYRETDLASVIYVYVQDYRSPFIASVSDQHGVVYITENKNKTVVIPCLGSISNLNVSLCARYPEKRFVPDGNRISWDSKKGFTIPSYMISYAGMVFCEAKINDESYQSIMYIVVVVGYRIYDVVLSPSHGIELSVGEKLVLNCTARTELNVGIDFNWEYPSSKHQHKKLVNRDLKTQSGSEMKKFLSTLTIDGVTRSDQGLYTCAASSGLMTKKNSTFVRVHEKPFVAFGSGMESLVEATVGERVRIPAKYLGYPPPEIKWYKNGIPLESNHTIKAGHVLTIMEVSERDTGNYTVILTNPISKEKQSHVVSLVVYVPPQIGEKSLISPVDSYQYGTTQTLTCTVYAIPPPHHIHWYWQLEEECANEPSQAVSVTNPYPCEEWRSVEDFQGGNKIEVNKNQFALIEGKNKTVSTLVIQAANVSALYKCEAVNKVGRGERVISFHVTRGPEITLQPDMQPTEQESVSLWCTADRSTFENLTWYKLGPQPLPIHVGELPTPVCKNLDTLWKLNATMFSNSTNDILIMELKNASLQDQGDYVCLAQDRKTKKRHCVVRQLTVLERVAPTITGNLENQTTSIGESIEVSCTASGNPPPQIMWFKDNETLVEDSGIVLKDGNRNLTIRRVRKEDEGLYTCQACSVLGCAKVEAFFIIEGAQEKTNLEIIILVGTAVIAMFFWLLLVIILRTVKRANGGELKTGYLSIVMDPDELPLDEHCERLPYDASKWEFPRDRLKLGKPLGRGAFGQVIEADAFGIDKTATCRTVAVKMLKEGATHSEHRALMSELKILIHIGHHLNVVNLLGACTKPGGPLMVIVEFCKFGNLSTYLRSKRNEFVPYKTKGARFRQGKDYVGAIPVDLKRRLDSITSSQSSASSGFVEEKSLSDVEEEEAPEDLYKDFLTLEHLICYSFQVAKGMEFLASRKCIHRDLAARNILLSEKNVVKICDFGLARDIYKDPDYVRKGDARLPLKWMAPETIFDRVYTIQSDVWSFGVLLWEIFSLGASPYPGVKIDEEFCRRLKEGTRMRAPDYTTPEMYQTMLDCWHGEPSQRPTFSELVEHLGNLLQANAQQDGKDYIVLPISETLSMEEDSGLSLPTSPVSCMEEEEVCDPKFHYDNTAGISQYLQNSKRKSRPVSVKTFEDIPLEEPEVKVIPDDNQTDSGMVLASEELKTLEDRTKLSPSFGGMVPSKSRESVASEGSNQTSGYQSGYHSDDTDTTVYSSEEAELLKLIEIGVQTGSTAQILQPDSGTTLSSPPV

Sequence of Macrophage colony-stimulating factor 1 receptor (P07333 whole entry, the tested form may be a part): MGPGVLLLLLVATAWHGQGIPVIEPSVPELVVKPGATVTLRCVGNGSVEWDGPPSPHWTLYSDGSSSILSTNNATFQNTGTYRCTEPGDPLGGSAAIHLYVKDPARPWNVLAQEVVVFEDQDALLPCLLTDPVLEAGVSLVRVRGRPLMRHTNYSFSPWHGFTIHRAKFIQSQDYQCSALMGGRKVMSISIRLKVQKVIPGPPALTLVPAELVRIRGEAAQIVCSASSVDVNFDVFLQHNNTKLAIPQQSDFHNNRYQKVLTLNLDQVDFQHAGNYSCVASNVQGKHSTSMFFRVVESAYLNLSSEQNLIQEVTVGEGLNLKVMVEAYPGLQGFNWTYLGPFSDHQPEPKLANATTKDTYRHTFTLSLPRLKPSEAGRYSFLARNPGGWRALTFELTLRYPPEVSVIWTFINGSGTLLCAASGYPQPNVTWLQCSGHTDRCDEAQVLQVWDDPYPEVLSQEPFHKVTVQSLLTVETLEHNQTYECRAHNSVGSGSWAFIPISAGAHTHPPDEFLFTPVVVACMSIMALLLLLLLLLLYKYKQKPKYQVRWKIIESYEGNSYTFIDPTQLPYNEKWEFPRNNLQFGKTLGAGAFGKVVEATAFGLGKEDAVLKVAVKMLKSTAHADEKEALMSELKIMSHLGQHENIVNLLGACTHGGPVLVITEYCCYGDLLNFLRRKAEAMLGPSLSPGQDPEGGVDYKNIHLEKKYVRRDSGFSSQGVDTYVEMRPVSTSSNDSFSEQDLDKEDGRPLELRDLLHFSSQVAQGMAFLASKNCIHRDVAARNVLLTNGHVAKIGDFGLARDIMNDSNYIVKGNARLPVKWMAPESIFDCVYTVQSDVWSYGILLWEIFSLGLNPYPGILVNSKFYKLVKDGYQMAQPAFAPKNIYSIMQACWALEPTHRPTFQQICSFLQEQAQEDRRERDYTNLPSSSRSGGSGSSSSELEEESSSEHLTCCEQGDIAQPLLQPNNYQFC

`Nc1ncnc2c3c(n(-c4ccc(NC(=O)Cc5cc(C(F)(F)F)ccc5F)cc4)c12)CCC3` showed an IC50 [1] of under 10 nM and an IC50 [2] of over 200 nM.
Compound `CC(C)c1cn(C)c2ccc(CC(=O)Nc3ccc(-n4c5c(c6ncnc(N)c64)CCC5)cc3)cc12` has an IC50 [1] of 10 to 200 nM and an IC50 [2] of over 200 nM.
`Nc1ncnc2c3c(n(-c4ccc(NC(=O)Cc5cc(C(F)(F)F)ccc5F)c(C(F)(F)F)c4)c12)CCC3` showed an IC50 [1] of over 200 nM.
`Nc1ncnc2c3c(n(-c4ccc(NC(=O)Cc5ccc(Cl)cc5F)cc4)c12)CCC3` gave an IC50 [1] of under 10 nM and an IC50 [2] of over 200 nM.
`Nc1ncnc2c3c(n(-c4ccc(NC(=O)Cc5ccnc(C(F)(F)F)c5)cc4)c12)CCC3` showed an IC50 [1] of under 10 nM and an IC50 [2] of over 200 nM.
Compound `COc1ccc(CC(=O)Nc2ccc(-n3c4c(c5ncnc(N)c53)CCC4)cc2OC)c(F)c1` has an IC50 [1] of under 10 nM and an IC50 [2] of over 200 nM.
`COc1cc(CC(=O)Nc2ccc(-n3c4c(c5ncnc(N)c53)CCC4)cc2)ccc1C` gave an IC50 [1] of under 10 nM and an IC50 [2] of over 200 nM.
Compound `COc1cc(-n2c3c(c4ncnc(N)c42)COC3)ccc1NC(=O)Cc1ccc(OC(F)(F)F)cc1` has an IC50 [1] of 6 nM and an IC50 [2] of over 200 nM.
Compound `COc1cc(-n2c3c(c4ncnc(N)c42)CCC3)ccc1NC(=O)Cc1ccc2c(c1)CCN2CC(F)(F)F` has an IC50 [1] of under 10 nM and an IC50 [2] of over 200 nM.
`Nc1ncnc2c3c(n(-c4ccc(NC(=O)Cc5ccc(Cl)nn5)cc4)c12)CCC3` was tested, and the IC50 [1] was 10 to 200 nM and the IC50 [2] was over 200 nM.
`Nc1ncnc2c3c(n(-c4ccc(NC(=O)Cc5ccc(F)cc5)cc4)c12)CCC3` was tested, and the IC50 [1] was under 10 nM and the IC50 [2] was over 200 nM.
Compound `Cn1ccc2cc(CC(=O)Nc3ccc(-n4c5c(c6ncnc(N)c64)COC5)cc3)ccc21` has an IC50 [1] of 10 to 200 nM and an IC50 [2] of over 200 nM.
`Nc1ncnc2c3c(n(-c4ccc(NC(=O)Cc5ccc6c(c5)CCN6CC(F)(F)F)cc4)c12)CCC3` showed an IC50 [1] of under 10 nM and an IC50 [2] of over 200 nM.
Work on `Cn1ccc2cc(CC(=O)Nc3ccc(-n4c5c(c6ncnc(N)c64)CCC5)cc3)ccc21` yielded an IC50 [1] of 4 nM and an IC50 [2] of over 200 nM.
In the case of `COc1cc(CC(=O)Nc2ccc(-n3c4c(c5ncnc(N)c53)CCC4)cc2)ccc1F`, the IC50 [1] is reported as 10 to 200 nM and the IC50 [2] is reported as over 200 nM.
Compound `Nc1ncnc2c3c(n(-c4ccc(NC(=O)Cc5cccc(OC(F)(F)F)c5)cc4)c12)CCC3` has an IC50 [1] of under 10 nM and an IC50 [2] of over 200 nM.
In the case of `COc1ccc(CC(=O)Nc2ccc(-n3c4c(c5ncnc(N)c53)CCC4)cc2)c(OC)c1`, the IC50 [1] is reported as under 10 nM and the IC50 [2] is reported as over 200 nM.
Compound `Cc1cc(CC(=O)Nc2ccc(-n3c4c(c5ncnc(N)c53)CCC4)cc2)on1` has an IC50 [1] of 10 to 200 nM and an IC50 [2] of over 200 nM.
In the case of `COc1cccc(CC(=O)Nc2ccc(-n3c4c(c5ncnc(N)c53)CCC4)cc2)c1`, the IC50 [1] is reported as under 10 nM and the IC50 [2] is reported as over 200 nM.
`CC(C(=O)Nc1ccc(-n2c3c(c4ncnc(N)c42)CCC3)cc1)c1ccccc1` (configuration not stated) showed an IC50 [1] of 10 to 200 nM and an IC50 [2] of over 200 nM.
For `Nc1ncnc2c3c(n(-c4ccc(NC(=O)Cc5cccc(Cl)c5F)cc4)c12)CCC3`, the IC50 [1] was under 10 nM and the IC50 [2] was over 200 nM.
With `Nc1ncnc2c3c(n(-c4ccc(NC(=O)Cc5ccc(OC(F)(F)F)cc5)cc4)c12)COC3` the IC50 [1] was under 10 nM and the IC50 [2] was over 200 nM.
With `COc1cc(CC(=O)Nc2ccc(-n3c4c(c5ncnc(N)c53)CCC4)cc2)cc(OC)c1` the IC50 [1] was over 200 nM and the IC50 [2] was over 200 nM.
Work on `Nc1ncnc2c3c(n(-c4ccc(NC(=O)Cc5ccc(Cl)cc5)cc4)c12)CCC3` yielded an IC50 [1] of under 10 nM and an IC50 [2] of over 200 nM.
`Nc1ncnc2c3c(n(-c4ccc(CC(=O)Nc5ccccc5)cc4)c12)CCC3` was tested, and the IC50 [1] was 10 to 200 nM and the IC50 [2] was over 200 nM.
`Nc1ncnc2c3c(n(-c4ccc(NC(=O)Cc5cc(Cl)ccc5F)cc4)c12)CCC3` gave an IC50 [1] of under 10 nM and an IC50 [2] of over 200 nM.
Work on `Nc1ncnc2c3c(n(-c4ccc(NC(=O)Cc5cccc(O)c5)cc4)c12)CCC3` yielded an IC50 [2] of over 200 nM.
For `Nc1ncnc2c3c(n(-c4ccc(NC(=O)CC5CCNCC5)cc4)c12)CCC3`, the IC50 [1] was over 200 nM and the IC50 [2] was over 200 nM.
With `Cc1ccc(CC(=O)Nc2ccc(-n3c4c(c5ncnc(N)c53)COC4)cc2)c(F)c1` the IC50 [1] was 10 to 200 nM and the IC50 [2] was over 200 nM.
In the case of `COc1ccc(CC(=O)Nc2ccc(-n3c4c(c5ncnc(N)c53)CCC4)cc2)cc1C`, the IC50 [1] is reported as under 10 nM and the IC50 [2] is reported as over 200 nM.
Work on `COc1ccc(CC(=O)Nc2ccc(-n3c4c(c5ncnc(N)c53)COC4)cc2)cc1C(F)(F)F` yielded an IC50 [1] of under 10 nM and an IC50 [2] of over 200 nM.
Work on `Cc1ccc(CC(=O)Nc2ccc(-n3c4c(c5ncnc(N)c53)CCC4)cc2)c(F)c1` yielded an IC50 [1] of under 10 nM and an IC50 [2] of 10 to 200 nM.
In the case of `Cc1ccc(CC(=O)Nc2ccc(-n3c4c(c5ncnc(N)c53)CCC4)cc2)cc1F`, the IC50 [1] is reported as under 10 nM and the IC50 [2] is reported as over 200 nM.
`Nc1ncnc2c3c(n(-c4ccc(NC(=O)Cc5ccc(F)cc5C(F)(F)F)cc4)c12)CCC3` gave an IC50 [1] of under 10 nM and an IC50 [2] of over 200 nM.
`Nc1ncnc2c3c(n(-c4ccc(NC(=O)Cc5nc6ccccc6s5)cc4)c12)CCC3` showed an IC50 [1] of 10 to 200 nM and an IC50 [2] of over 200 nM.
With `COc1ccc(CC(=O)Nc2ccc(-n3c4c(c5ncnc(N)c53)CCC4)cc2)cc1C(F)(F)F` the IC50 [1] was under 10 nM and the IC50 [2] was over 200 nM.
With `Nc1ncnc2c3c(n(-c4ccc(NC(=O)Cc5ccc(Cl)c(C(F)(F)F)c5)cc4)c12)COC3` the IC50 [1] was under 10 nM and the IC50 [2] was over 200 nM.
